Laboratory results: US7699995B2, “Water treatment method” (priority 2006, dated 2010)
In brackets after ≈: the same amount, converted by molar mass.

Tests used:
[1] = Stability with oxidizing and reducing agents at pH 7 and pH 9 (HPLC); type: physicochemical
Method: Oxidizing agents (2 mM) included hydrogen peroxide (H2O2; 68 ppm), t-butyl hydrogen peroxide (t-BHP; 180 ppm), and potassium persulfate (K2O8S2; 540 ppm). Reducing agents (2 mM) included iso-ascorbic acid (IAA; 352 ppm) and sodium bisulfite (NaHSO3; 208 ppm). Biocides were tested at 1 mM concentrations, representing 115 ppm MI and […].
The pH 7.0 buffer contained 0.00426% monopotassium phosphate plus 0.019% magnesium chloride hexahydrate. The pH 9.0 buffer contained 0.0046 M hydrochloric acid plus 0.013 M borax. Stock solutions of the redox agents were prepared and added to aliquots of each buffer to give 2 mM concentrations. The biocides were then added to give 1 mM concentrations. The samples were stored at 25° C. and analyzed for biocide level by HPLC at 0, 2 and 8 days.

[2] = Stability in buffered water at various pH and temperatures (HPLC); type: physicochemical
Method: Biocides were added to buffer solutions and stability was tested at 22° and 50° C. using HPLC to measure biocide concentration at 0 time, 21 days, 43 days, and 88-90 days. Biocide stability was determined in the following buffer solutions: pH2, 0.01M HCl; pH6, 0.1M KH2PO4; pH8, 0.025M borate; pH10, 0.025M borate; pH12, 0.05M Na2HPO4. Biocide concentrations tested were 100 ppm MI, 200 ppm BIT, 44 ppm CMI.

Alcaligenes faecalis = experiment: MIC, bacteria, TSB pH 7; type: cell-based; conditions: 48 h
Method: (§1) Minimum inhibitory concentration (MIC) studies were conducted to determine the lowest level of biocide required to inhibit growth of bacteria and fungi. Tests were conducted in 96-well microtiter plates. Biocides were added to growth media in the plates and serially diluted to obtain a range of concentrations. Bacterial tests were conducted in trypticase soy broth (TSB; pH 7) using an overnight inoculum added at 10^6 colony forming units per ml. […] Fungal tests were conducted in malt extract broth (MEB; pH 4.7) using an 5-7 day inoculum added at 10^4 colony forming units per ml.

Citrobacter freundii = experiment: MIC, bacteria, TSB pH 7; type: cell-based; conditions: 48 h, TSB pH 7, 25° C., two days
Method: as §1

Enterobacter aerogenes = experiment: MIC, bacteria, TSB pH 7; type: cell-based; conditions: Klebsiella aerogenes, 48 h
Method: as §1

Enterobacter cloacae = experiment: MIC, bacteria, TSB pH 7; type: cell-based; conditions: 48 h
Method: as §1

Escherichia coli = experiment: MIC, bacteria, TSB pH 7; type: cell-based; conditions: 48 h
Method: as §1

Klebsiella pneumoniae = experiment: MIC, bacteria, TSB pH 7; type: cell-based; conditions: 48 h
Method: as §1

Proteus mirabilis = experiment: MIC, bacteria, TSB pH 7; type: cell-based; conditions: 48 h
Method: as §1

Pseudomonas aeruginosa = experiment: MIC, bacteria, TSB pH 7; type: cell-based; conditions: 48 h, TSB pH 7, 25° C., two days
Method: as §1

Pseudomonas fluorescens = experiment: MIC, bacteria, TSB pH 7; type: cell-based; conditions: 48 h, TSB pH 7, 25° C., two days
Method: as §1

Pseudomonas oleovorans = experiment: MIC, bacteria, TSB pH 7; type: cell-based
Method: as §1

Pseudomonas putida = experiment: MIC, bacteria, TSB pH 7; type: cell-based; conditions: 48 h
Method: as §1

Shewanella putrefaciens = experiment: MIC, bacteria, TSB pH 7; type: cell-based; conditions: 48 h
Method: as §1

Bacteria = experiment: MIC, average over bacteria; type: cell-based
Method: as §1

[3] = Stability in pH 9 buffer solution at 70° C. (HPLC)
Method: pH 9 buffer containing 0.069 M boric acid, 0.017 M citric acid, 0.066 M sodium phosphate was prepared in distilled water. Biocide was dosed into the pH 9 buffer solution and stored at 70° C. in a heat block. The samples were examined for active ingredient concentration at the time points after 5 hours, and 1, 3, 7, 23, 30, 35 and 56 days. Initial biocide doses were 166 ppm MI, 199 ppm BIT and 150 ppm BNPD.
The samples were evaluated for active ingredient concentration via High Pressure Liquid Chromatography. Samples were taken from the heating blocks and allowed to cool to room temperature for 30 minutes. The samples were then diluted 1:20 in deionized water by adding 9.5 ml of deionized water to 0.5 grams of the samples in a 25 ml glass sample vial. The samples were mixed for 15 seconds and transferred to HPLC sample vials for analysis.

[4] = K-persulfate 2 mM, pH 7, 25° C.
[5] = K-persulfate 2 mM, pH 9, 25° C.
[6] = Na bisulfite 2 mM, pH 7, 25° C.
[7] = Na bisulfite 2 mM, pH 9, 25° C.

Cn1sccc1=O [MI, 2-methyl-4-isothiazolin-3-one]
% Remaining after 2 Days ([1]; H2O2 2 mM, pH 7, 25° C.): 100% | % Remaining after 8 Days ([1]; H2O2 2 mM, pH 7, 25° C.): 100% | % Remaining after 2 Days ([1]; H2O2 2 mM, pH 9, 25° C.): 94% | % Remaining after 8 Days ([1]; H2O2 2 mM, pH 9, 25° C.): 88% | % Remaining after 2 Days ([1]; IAA 2 mM, pH 7, 25° C.): 100% | % Remaining after 8 Days ([1]; IAA 2 mM, pH 7, 25° C.): 96% | % Remaining after 2 Days ([1]; IAA 2 mM, pH 9, 25° C.): 105% | % Remaining after 8 Days ([1]; IAA 2 mM, pH 9, 25° C.): 103% | % Remaining after 2 Days [1, 4]: 90% | % Remaining after 8 Days [1, 4]: 75% | % Remaining after 2 Days [1, 5]: 93% | % Remaining after 8 Days [1, 5]: 73% | % Remaining after 2 Days [1, 6]: 29% | % Remaining after 8 Days [1, 6]: 26% | % Remaining after 2 Days [1, 7]: 70% | % Remaining after 8 Days [1, 7]: 78% | % Remaining after 2 Days ([1]; no redox agent, pH 7, 25° C.): 100% | % Remaining after 8 Days ([1]; no redox agent, pH 7, 25° C.): 100% | % Remaining after 2 Days ([1]; no redox agent, pH 9, 25° C.): 100% | % Remaining after 8 Days ([1]; no redox agent, pH 9, 25° C.): 100% | % Remaining after 2 Days ([1]; t-BHP 2 mM, pH 7, 25° C.): 99% | % Remaining after 8 Days ([1]; t-BHP 2 mM, pH 7, 25° C.): 102% | % Remaining after 2 Days ([1]; t-BHP 2 mM, pH 9, 25° C.): 98% | % Remaining after 8 Days ([1]; t-BHP 2 mM, pH 9, 25° C.): 96% | Percent Remaining at: pH 2 ([2]; 22° C., day 0): 100% | Percent Remaining at: pH 6 ([2]; 22° C., day 0): 100% | Percent Remaining at: pH 8 ([2]; 22° C., day 0): 100% | Percent Remaining at: pH 10 ([2]; 22° C., day 0): 100% | Percent Remaining at: pH 12 ([2]; 22° C., day 0): 100% | Percent Remaining at: pH 2 ([2]; 22° C., day 21): 104% | Percent Remaining at: pH 6 ([2]; 22° C., day 21): 100% | Percent Remaining at: pH 8 ([2]; 22° C., day 21): 100% | Percent Remaining at: pH 10 ([2]; 22° C., day 21): 100% | Percent Remaining at: pH 12 ([2]; 22° C., day 21): 98% | Percent Remaining at: pH 2 ([2]; 22° C., day 43): 98% | Percent Remaining at: pH 6 ([2]; 22° C., day 43): 94% | Percent Remaining at: pH 8 ([2]; 22° C., day 43): 95% | Percent Remaining at: pH 10 ([2]; 22° C., day 43): 89% | Percent Remaining at: pH 12 ([2]; 22° C., day 43): 93% | Percent Remaining at: pH 2 ([2]; 22° C., day 88): 100% | Percent Remaining at: pH 6 ([2]; 22° C., day 88): 100% | Percent Remaining at: pH 8 ([2]; 22° C., day 88): 100% | Percent Remaining at: pH 10 ([2]; 22° C., day 88): 100% | Percent Remaining at: pH 12 ([2]; 22° C., day 88): 100% | Percent Remaining at: pH 2 ([2]; 50° C., day 0): 100% | Percent Remaining at: pH 6 ([2]; 50° C., day 0): 100% | Percent Remaining at: pH 8 ([2]; 50° C., day 0): 100% | Percent Remaining at: pH 10 ([2]; 50° C., day 0): 100% | Percent Remaining at: pH 12 ([2]; 50° C., day 0): 100% | Percent Remaining at: pH 2 ([2]; 50° C., day 21): 100% | Percent Remaining at: pH 6 ([2]; 50° C., day 21): 98% | Percent Remaining at: pH 8 ([2]; 50° C., day 21): 100% | Percent Remaining at: pH 10 ([2]; 50° C., day 21): 98% | Percent Remaining at: pH 12 ([2]; 50° C., day 21): 90% | Percent Remaining at: pH 2 ([2]; 50° C., day 43): 97% | Percent Remaining at: pH 6 ([2]; 50° C., day 43): 93% | Percent Remaining at: pH 8 ([2]; 50° C., day 43): 95% | Percent Remaining at: pH 10 ([2]; 50° C., day 43): 93% | Percent Remaining at: pH 12 ([2]; 50° C., day 43): 78% | Percent Remaining at: pH 2 ([2]; 50° C., day 90): 100% | Percent Remaining at: pH 6 ([2]; 50° C., day 90): 100% | Percent Remaining at: pH 8 ([2]; 50° C., day 90): 100% | Percent Remaining at: pH 10 ([2]; 50° C., day 90): 100% | Percent Remaining at: pH 12 ([2]; 50° C., day 90): 76% | MIC (Alcaligenes faecalis): 28 µg/mL (≈ 243 µM) | MIC (Citrobacter freundii; first listed): 25 µg/mL (≈ 217 µM) | MIC (Citrobacter freundii; second listed): 41 µg/mL (≈ 356 µM) | MIC (Enterobacter aerogenes): 82 µg/mL (≈ 712 µM) | MIC (Enterobacter cloacae): 25 µg/mL (≈ 217 µM) | MIC (Escherichia coli): 31 µg/mL (≈ 269 µM) | MIC (Klebsiella pneumoniae): 12 µg/mL (≈ 104 µM) | MIC (Proteus mirabilis): 21 µg/mL (≈ 182 µM) | MIC (Pseudomonas aeruginosa; first listed): 15 µg/mL (≈ 130 µM) | MIC (Pseudomonas aeruginosa; second listed): 25 µg/mL (≈ 217 µM) | MIC (Pseudomonas fluorescens; first listed): 31 µg/mL (≈ 269 µM) | MIC (Pseudomonas fluorescens; second listed): 16 µg/mL (≈ 139 µM) | MIC (Pseudomonas oleovorans; Ectopseudomonas oleovorans, 48 h, pH 7): 6 µg/mL (≈ 52.1 µM) | MIC (Pseudomonas oleovorans; Pseudomonas oleovorans, second listed, TSB pH 7, 25° C., two days): 6 ppm | MIC (Pseudomonas putida): 13 µg/mL (≈ 113 µM) | MIC (Shewanella putrefaciens): 13 µg/mL (≈ 113 µM) | MIC (Bacteria; average over the bacteria tested): 24 µg/mL (≈ 208 µM) | MI: CMI + MI MIC Ratio (Bacteria; bacteria, ratio of average MICs): 10.9 | Percent Remaining after: 5 hr ([3]; 5 hr): 96% | Percent Remaining after: 1 day ([3]; 1 day): 96% | Percent Remaining after: 3 day ([3]; 3 day): 96% | Percent Remaining after: 7 day ([3]; 7 day): 93% | Percent Remaining after: 23 day ([3]; 23 day): 95% | Percent Remaining after: 30 day ([3]; 30 day): 101% | Percent Remaining after: 35 day ([3]; 35 day): 93% | Percent Remaining after: 56 day ([3]; 56 day): 102% | loss of active ingredient ([3]; day 56): no loss | Percent Remaining after: 0 ([3]; time 0): 100%
